Measurements: patent publication US20260224573A1, “CRYSTAL FORM OF COMPOUND, AND PREPARATION METHOD AND USE THEREOF” (FELICAMED BIOTECHNOLOGY CO., LTD., priority 2023, published 2026)
In brackets after ≈: the same amount, converted by molar mass. Like-named read-outs stand apart in the source and are kept apart here.

What was measured:
[1] = Assessment of dynamic solubility; format: physicochemical; settings: for FC: crystal transfer (XRPD of solid) / pH of filtrate: 37° C.; for solubility / solubility at 1 h / solubility at 2 h / solubility at 4 h / solubility at 24 h: 37 °C, thermodynamic from solid; for solubility at 1 h / solubility at 2 h / solubility at 4 h / solubility at 24 h: read-out: S: solubility, calculated as free form
[2] = Assessment of 24-h solubility in pH buffers; format: physicochemical; settings: room temperature
[3] = remark: listed apart in the source
Text: DVS isotherms were collected on an SMS (Surface Measurement Systems) DVS Intrinsic.

[4] = Acute toxicity test, single oral intragastric administration; format: in vivo; settings: Sprague-Dawley, rat, in vivo
Description: (§1) In this experiment, all animals were randomly divided into 5 groups (5 animals/sex/group), received the drug at 97 mg/kg, 174 mg/kg, 312 mg/kg, 559 mg/kg, and 1000 mg/kg, respectively, and received signal intragastric administration orally. […] All animals received administration according to their latest weighed body weight. The drug was stirred for at least 10 min before administration, and continuously stirred during administration until the administration of the sample at this concentration was completed. The animals were fasted for 11 h to 12 h before administration and resumed eating approximately 2 h after administration, with no restriction on drinking water.
(§2) All animals underwent a comprehensive physical examination by a veterinarian before administration. During the acclimation period, cage-side observation was performed once or twice a day, and detailed clinical observation was performed once a day. During the experiment, cage-side observation was performed twice a day (once on the day of dissection), and detailed clinical observation was performed once or twice a day. All surviving animals were weighed once on the day of random grouping (Day-1), Day 1 (before administration), Day 3, Day 5, Day 7, and Day 8; and their 24±1-hour food consumption was measured once on Day 1 (Day 1 to Day 2), Day 2 (Day 2 to Day 3), and Day 6 (Day 6 to Day 7). At the end of the experimental (Day 8), all surviving animals were euthanized by carbon dioxide inhalation and abdominal aorta/vein bleeding and then subjected to gross anatomical examination. Animals that died during the experiment were also subjected to gross anatomical examination.

[5] = test system: SD rats; experiment: as above; format: in vivo; settings: female rats
Description: as §1, §2

## CC[S@@](=N)(=O)C[C@H]1CC[C@H](N(C)c2ncnc3[nH]ccc23)CC1 [Free crystal form A]
[1]; FaSSIF, 1 h
  FC: crystal transfer (XRPD of solid): No
  pH of filtrate: 6.6
[1]; FaSSIF, 2 h
  FC: crystal transfer (XRPD of solid): No
  pH of filtrate: 6.6
[1]; FaSSIF, 4 h
  FC: crystal transfer (XRPD of solid): No
  pH of filtrate: 6.6
[1]; FaSSIF, 24 h
  FC: crystal transfer (XRPD of solid): No
  pH of filtrate: 6.6
[1]; FeSSIF, 1 h
  FC: crystal transfer (XRPD of solid): No
  pH of filtrate: 5.3
[1]; FeSSIF, 2 h
  FC: crystal transfer (XRPD of solid): No
  pH of filtrate: 5.3
[1]; FeSSIF, 4 h
  FC: crystal transfer (XRPD of solid): No
  pH of filtrate: 5.3
[1]; FeSSIF, 24 h
  FC: crystal transfer (XRPD of solid): No
[1]; H2O and FaSSIF, water, in H2O and FaSSIF
  solubility: 2100 to 2400 µg/mL (≈ 6.26 to 7.15 mM)
[1]; H2O, 1 h
  FC: crystal transfer (XRPD of solid): No
[1]; H2O, 2 h
  FC: crystal transfer (XRPD of solid): No
[1]; H2O, 4 h
  FC: crystal transfer (XRPD of solid): No
  pH of filtrate: 6.7
[1]; H2O, 24 h
  FC: crystal transfer (XRPD of solid): No
[1]; SGF and FeSSIF, simulated gastric fluid, in SGF and FeSSIF, sample not fully dissolved
  solubility: 9000 to 10000 µg/mL (≈ 26.8 to 29.8 mM)
[1]; SGF, 1 h
  FC: crystal transfer (XRPD of solid): No
[1]; SGF, 2 h
  FC: crystal transfer (XRPD of solid): No
  pH of filtrate: 5.2
[1]; SGF, 4 h
  FC: crystal transfer (XRPD of solid): No
  pH of filtrate: 5.2
[1]; SGF, 24 h
  FC: crystal transfer (XRPD of solid): No
[1]; fed state simulated intestinal fluid (FeSSIF), fessif, FeSSIF, 1 h
  solubility at 1 h: 9400 µg/mL (≈ 28 mM)
[1]; fed state simulated intestinal fluid (FeSSIF), fessif, FeSSIF, 2 h
  solubility at 2 h: 9200 µg/mL (≈ 27.4 mM)
[1]; fed state simulated intestinal fluid (FeSSIF), fessif, FeSSIF, 4 h
  solubility at 4 h: 9400 µg/mL (≈ 28 mM)
[1]; fed state simulated intestinal fluid (FeSSIF), fessif, FeSSIF, 24 h
  solubility at 24 h: 9900 µg/mL (≈ 29.5 mM)
[1]; simulated gastric fluid (SGF), simulated gastric fluid, SGF, 1 h
  solubility at 1 h: 9000 µg/mL (≈ 26.8 mM)
[1]; simulated gastric fluid (SGF), simulated gastric fluid, SGF, 2 h
  solubility at 2 h: 8900 µg/mL (≈ 26.5 mM)
[1]; simulated gastric fluid (SGF), simulated gastric fluid, SGF, 4 h
  solubility at 4 h: 8800 µg/mL (≈ 26.2 mM)
[1]; simulated gastric fluid (SGF), simulated gastric fluid, SGF, 24 h
  solubility at 24 h: 9100 µg/mL (≈ 27.1 mM)
25° C./60% RH/4 weeks
  UPLC peak Area, RRT 1.00: 99.71%
  UPLC peak Area, RRT 1.47: 0.06%
  UPLC peak Area, RRT 1.63: 0.05%
  UPLC peak Area, RRT 2.10: 0.10%
  UPLC peak Area, RRT 2.94: 0.07%
25° C./60% RH/4 weeks, open
  Crystal form Transform: No
  Purity: 99.71 area %
40° C./75% RH/4 weeks
  UPLC peak Area, RRT 1.00: 99.72%
  UPLC peak Area, RRT 1.47: 0.06%
  UPLC peak Area, RRT 1.63: 0.05%
  UPLC peak Area, RRT 2.10: 0.10%
  UPLC peak Area, RRT 2.94: 0.07%
40° C./75% RH/4 weeks, open
  Crystal form Transform: No
  Purity: 99.72 area %
80° C./1 d
  UPLC peak Area, RRT 1.47: 0.06%
  UPLC peak Area, RRT 1.63: 0.05%
  UPLC peak Area, RRT 2.10: 0.10%
  UPLC peak Area, RRT 2.94: 0.08%
80° C./1 d, closed
  Crystal form Transform: No
Starting
  UPLC peak Area, RRT 1.47: 0.05%
  UPLC peak Area, RRT 1.63: 0.05%
  UPLC peak Area, RRT 2.10: 0.10%
  UPLC peak Area, RRT 2.94: 0.07%
[2]; Buffer (pH = 2.0)
  FC: crystal transfer: No
[2]; Buffer (pH = 7.4)
  FC: crystal transfer: No
[2]; buffer pH 7.4, pH 7.4, aqueous buffer, thermodynamic from solid, Buffer (pH = 7.4), read-out: S: solubility, calculated as free form
  solubility at 24 h: 1700 µg/mL (≈ 5.07 mM)
[3]; 25° C./80% RH
  hygroscopicity: slight hygroscopicity
[3]; XRPD before and after DVS
  Crystal transformation after DVS: No
[4]; oral, female rats, read-out: LD50 95% confidence interval
  LD50 at 7 d: 313 to 558 mg/kg
[4]; oral, male rats, read-out: LD50 95% confidence interval
  LD50 at 7 d: 429 to 818 mg/kg
[4]; oral, male rats, read-out: maximum tolerance dose (MTD)
  MTD at 7 d: 312 mg/kg
[4]; po, female rats, single intragastric administration, 7 d observation, read-out: LD50
  LD50 at 7 d: 418 mg/kg
[4]; po, male rats, single intragastric administration, 7 d observation, read-out: LD50
  LD50 at 7 d: 592 mg/kg
[5]
  maximum tolerance dose: 174 mg/kg
